For assay [1], the target named is PI3Kδ (p110δ/p85α) Recombinant Human Protein (Homo sapiens (Human), UniProt O00329). Briefly: PI3Kδ Scintillation Proximity Assay. The assay is classed as biochemical. A digest of the protocol: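 Kinase reaction run at room temperature in 20 mM MOPS pH 6.7, 10 mM MgCl2, 5 mM DTT, 0.03% CHAPS with 20 μM PIP2, 2 μM ATP plus [γ-33P]ATP, 3.4 nM enzyme, 2% DMSO; 120 min. Quenched with WGA SPA beads/EDTA, counted by scintillation; IC50 from % solvent-control activity vs log concentration.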
PI3Kδ (p110δ/p85α) Recombinant Human Protein, sequence (O00329 whole entry): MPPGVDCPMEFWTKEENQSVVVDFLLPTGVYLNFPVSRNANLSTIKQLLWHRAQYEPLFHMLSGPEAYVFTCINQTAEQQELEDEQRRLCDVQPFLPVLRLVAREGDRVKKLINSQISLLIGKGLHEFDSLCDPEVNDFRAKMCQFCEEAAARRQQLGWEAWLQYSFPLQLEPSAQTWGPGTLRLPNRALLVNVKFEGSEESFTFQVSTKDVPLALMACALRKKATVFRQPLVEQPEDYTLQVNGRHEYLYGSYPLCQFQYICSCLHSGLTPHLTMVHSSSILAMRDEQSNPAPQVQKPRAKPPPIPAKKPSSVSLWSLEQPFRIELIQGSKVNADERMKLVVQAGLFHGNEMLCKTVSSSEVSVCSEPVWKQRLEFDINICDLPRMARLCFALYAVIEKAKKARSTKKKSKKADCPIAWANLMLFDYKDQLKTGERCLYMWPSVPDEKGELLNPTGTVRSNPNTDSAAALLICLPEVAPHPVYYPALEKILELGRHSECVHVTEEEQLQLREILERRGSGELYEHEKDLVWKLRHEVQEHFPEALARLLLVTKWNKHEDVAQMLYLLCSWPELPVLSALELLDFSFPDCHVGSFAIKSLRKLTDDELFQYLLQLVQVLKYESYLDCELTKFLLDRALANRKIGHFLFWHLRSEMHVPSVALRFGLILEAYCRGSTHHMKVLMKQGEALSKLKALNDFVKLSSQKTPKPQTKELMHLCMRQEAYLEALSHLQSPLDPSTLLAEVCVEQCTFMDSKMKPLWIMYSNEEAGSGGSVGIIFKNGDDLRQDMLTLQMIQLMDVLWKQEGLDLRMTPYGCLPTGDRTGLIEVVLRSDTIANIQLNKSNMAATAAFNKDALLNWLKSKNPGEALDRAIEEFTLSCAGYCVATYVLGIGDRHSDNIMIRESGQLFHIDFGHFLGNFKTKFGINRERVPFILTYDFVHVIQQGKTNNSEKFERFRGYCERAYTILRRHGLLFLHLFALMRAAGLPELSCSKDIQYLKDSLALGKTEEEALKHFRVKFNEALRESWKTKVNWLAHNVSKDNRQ
PI3Kδ (p110δ/p85α) Recombinant Human Protein, sequence (P27986 whole entry partner): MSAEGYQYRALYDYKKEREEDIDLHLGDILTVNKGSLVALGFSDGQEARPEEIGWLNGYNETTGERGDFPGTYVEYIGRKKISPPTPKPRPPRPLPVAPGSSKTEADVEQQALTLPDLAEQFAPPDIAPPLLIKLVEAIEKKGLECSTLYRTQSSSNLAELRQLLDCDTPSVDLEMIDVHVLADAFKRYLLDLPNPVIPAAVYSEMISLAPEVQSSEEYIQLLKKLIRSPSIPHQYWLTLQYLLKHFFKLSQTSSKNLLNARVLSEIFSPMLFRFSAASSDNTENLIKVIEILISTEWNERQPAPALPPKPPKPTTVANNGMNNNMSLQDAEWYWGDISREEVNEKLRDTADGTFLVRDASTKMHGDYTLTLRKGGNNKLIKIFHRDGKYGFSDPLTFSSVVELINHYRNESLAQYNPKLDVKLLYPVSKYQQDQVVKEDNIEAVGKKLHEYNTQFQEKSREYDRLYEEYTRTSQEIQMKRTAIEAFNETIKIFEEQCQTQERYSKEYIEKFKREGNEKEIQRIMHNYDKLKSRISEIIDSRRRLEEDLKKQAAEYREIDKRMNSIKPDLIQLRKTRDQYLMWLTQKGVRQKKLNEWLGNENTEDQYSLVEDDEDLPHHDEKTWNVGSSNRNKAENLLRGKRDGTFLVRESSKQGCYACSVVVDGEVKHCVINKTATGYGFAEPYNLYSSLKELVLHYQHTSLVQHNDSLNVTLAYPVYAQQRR
On the technique in general: SPA uses beads or plates that emit light when radiolabelled molecules are held near them.

For assay [2], the system named is Phosphorylated Ribosomal Protein S6 (RPS6). As to the kind of experiment: THP-1 RPS6 ELISA Assay. In kind it is cell-based, Human. Conditions: THP-1 cells, read-out: PI3Kγ_THP1_RPS6_ELISA IC50. A digest of the protocol: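 Serum-starved THP-1 cells were preincubated with a concentration range of compound for 2 h at 37 °C, then stimulated with 10 nM MCP-1 for 15 min. Phospho-RPS6 in lysates was quantified by ELISA at 450 nm. IC50 came from percent inhibition versus log inhibitor concentration.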
Background: An ELISA detects its analyte on a solid surface through an enzyme-linked reagent.

The target in assay [3] is PI3Kγ (p110γ) Recombinant Human Protein (Homo sapiens (Human), UniProt P48736). As to the kind of experiment: PI3K-γ Scintillation Proximity Assay. The assay is classed as biochemical. Conditions: read-out: PI3Kγ IC50. A digest of the protocol: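 Recombinant human p110γ assayed at room temperature in 20 mM MOPS pH 6.7, 10 mM MgCl2, 5 mM DTT, 0.03% CHAPS, 2% DMSO, with 20 μM PIP2 and 2 μM ATP plus [γ-33P]ATP. Product captured on WGA SPA beads overnight and counted; IC50 fitted from % of solvent-control activity versus log inhibitor concentration.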
PI3Kγ (p110γ) Recombinant Human Protein, sequence (P48736 whole entry): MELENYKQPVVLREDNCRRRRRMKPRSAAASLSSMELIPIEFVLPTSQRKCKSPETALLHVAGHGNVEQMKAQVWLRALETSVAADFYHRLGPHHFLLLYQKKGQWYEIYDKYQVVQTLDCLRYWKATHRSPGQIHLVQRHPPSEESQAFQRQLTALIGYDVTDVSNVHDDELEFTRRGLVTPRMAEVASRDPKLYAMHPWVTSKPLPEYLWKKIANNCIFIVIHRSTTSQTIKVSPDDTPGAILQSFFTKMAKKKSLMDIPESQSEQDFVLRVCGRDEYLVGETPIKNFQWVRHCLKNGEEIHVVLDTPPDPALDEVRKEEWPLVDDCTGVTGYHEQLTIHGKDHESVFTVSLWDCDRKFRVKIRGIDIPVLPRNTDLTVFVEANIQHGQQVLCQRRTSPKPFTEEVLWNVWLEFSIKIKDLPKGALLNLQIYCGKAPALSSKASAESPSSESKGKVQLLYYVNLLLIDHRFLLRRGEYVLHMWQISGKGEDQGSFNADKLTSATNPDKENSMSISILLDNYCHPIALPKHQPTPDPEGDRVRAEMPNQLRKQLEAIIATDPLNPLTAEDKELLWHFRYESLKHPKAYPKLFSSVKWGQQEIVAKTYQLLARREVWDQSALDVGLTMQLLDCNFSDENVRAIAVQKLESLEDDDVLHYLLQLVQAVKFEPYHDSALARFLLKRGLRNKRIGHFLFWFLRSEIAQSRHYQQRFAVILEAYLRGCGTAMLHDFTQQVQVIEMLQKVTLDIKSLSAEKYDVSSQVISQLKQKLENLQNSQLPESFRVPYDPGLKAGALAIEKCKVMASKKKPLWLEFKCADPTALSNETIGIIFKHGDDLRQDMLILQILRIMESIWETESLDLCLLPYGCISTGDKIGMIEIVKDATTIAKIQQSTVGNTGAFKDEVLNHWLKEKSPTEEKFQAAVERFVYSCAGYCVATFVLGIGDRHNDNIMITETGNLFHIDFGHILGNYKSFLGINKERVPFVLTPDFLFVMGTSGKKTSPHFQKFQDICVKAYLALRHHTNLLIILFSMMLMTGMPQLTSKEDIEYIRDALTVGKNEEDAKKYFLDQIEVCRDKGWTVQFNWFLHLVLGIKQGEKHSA

Experimental findings from patent US10479795B2 (Incyte Corporation, priority 2016, dated 2019) are described below.

Counter-ions that a name gives are not always drawn. Like-named read-outs stand apart in the source and are kept apart here.

What is called IC50 is the concentration needed to halve the response being measured. For the molecule `Nc1ncnn2c(-c3ccc(Cl)c(S(=O)(=O)NC45CCC(CO)(C4)C5)c3)cnc12` [Example 367, 5-(4-Aminoimidazo[1,2-f][1,2,4]triazin-7-yl)-2-chloro-N-(4-(hydroxymethyl)bicyclo[2.1.1]hexan-1-yl)benzenesulfonamide trifluoroacetate salt], the figures for the IC50 in assay [1], in assay [2] and in assay [3] were 100 to 500 nM, above 1000 nM and below 100 nM, respectively.
For the molecule `COc1nc(CO)ccc1-c1cn2c(-c3cc(S(C)(=O)=O)ccc3C)cnc2c(N)n1` [Example 490, (5-(8-Amino-3-(2-methyl-5-(methylsulfonyl)phenyl)imidazo[1,2-a]pyrazin-6-yl)-6-methoxypyridin-2-yl)methanol trifluoroacetate], the half-maximal inhibitory concentration (IC50) was 100 to 500 nM in assay [1], below 100 nM in assay [2] (Homo sapiens) and below 100 nM in assay [3].
Turning to `CC(=O)C12CC(NS(=O)(=O)c3ccc(C)c(-c4cnc5c(N)ncnn45)c3)(C1)C2` [Example 95, N-(3-Acetylbicyclo[1.1.1]pentan-1-yl)-3-(4-aminoimidazo[1,2-f][1,2,4]triazin-7-yl)-4-methylbenzenesulfonamide trifluoroacetate salt], the IC50 is 100 to 500 nM in assay [1], 100 to 500 nM in assay [2] and below 100 nM in assay [3].
As to `Cc1noc(C23CC(NS(=O)(=O)c4ccc(C)c(-c5cnc6c(N)ncnn56)c4)(C2)C3)n1` [Example 94, 3-(4-Aminoimidazo[1,2-f][1,2,4]triazin-7-yl)-4-methyl-N-(3-(3-methyl-1,2,4-oxadiazol-5-yl)bicyclo[1.1.1]pentan-1-yl)benzenesulfonamide trifluoroacetate salt], the IC50 was 100 to 500 nM in assay [1], 500 to 1000 nM in assay [2] and below 100 nM in assay [3].
Turning to `Cc1ccc(S(=O)(=O)NC23CC(C#N)(C2)C3)cc1-c1cnc2c(N)nc(C(F)(F)F)cn12` [Example 287, 3-(8-Amino-6-(trifluoromethyl)imidazo[1,2-a]pyrazin-3-yl)-N-(3-cyanobicyclo[1.1.1]pentan-1-yl)-4-methylbenzenesulfonamide], the values for the IC50 in assay [1], in assay [2] (Homo sapiens) and in assay [3] were 100 to 500 nM, below 100 nM and below 100 nM, respectively.
On to `CCOC(=O)C1CCCN(S(=O)(=O)c2ccc(C)c(-c3cnc4c(N)nc(C(F)(F)F)cn34)c2)C1` (stereo not drawn) [Example 509, Ethyl 1-((3-(8-amino-6-(trifluoromethyl)imidazo[1,2-a]pyrazin-3-yl)-4-methylphenyl)sulfonyl)piperidine-3-carboxylate], for which the IC50 in assay [1] was 500 to 2000 nM; in assay [2] (Homo sapiens), above 1000 nM; in assay [3], below 100 nM.
As for `CC(=O)Nc1cc(Cl)cn2c(-c3cc(S(=O)(=O)N[C@H]4CC[C@H](O)CC4)ccc3C)cnc12` [Example 5, N-[6-chloro-3-(5-{[(trans-4-hydroxycyclohexyl)amino]sulfonyl}-2-methylphenyl)imidazo[1,2-a]pyridin-8-yl]acetamide], the figures for the IC50 in assay [1], in assay [2] (Homo sapiens) and in assay [3] were 100 to 500 nM, 100 to 500 nM and below 100 nM, respectively.
Regarding `N#CC12CCC(NS(=O)(=O)c3cccc(-c4cnc5c(N)nc(C(F)(F)F)cn45)c3)(C1)C2` [Example 395, 3-(8-Amino-6-(trifluoromethyl)imidazo[1,2-a]pyrazin-3-yl)-N-(4-cyanobicyclo[2.1.1]hexan-1-yl)benzenesulfonamide trifluoroacetate salt], the IC50 in assay [1] was 100 to 500 nM; in assay [2] (Homo sapiens), 100 to 500 nM; in assay [3] it was below 100 nM.
On to `Cc1ccc(S(=O)(=O)NC23CC(Cn4ccnc4)(C2)C3)cc1-c1cnc2c(N)nc(C(F)(F)F)nn12` [Example 324, N-(3-((1H-Imidazol-1-yl)methyl)bicyclo[1.1.1]pentan-1-yl)-3-(4-amino-2-(trifluoromethyl)imidazo[1,2-f][1,2,4]triazin-7-yl)-4-methylbenzenesulfonamide trifluoroacetate salt], for which the IC50 in assay [1] is 100 to 500 nM; in assay [2], below 100 nM; in assay [3] it was below 100 nM.
As for `Cc1ccc(S(=O)(=O)NC23CC(CF)(C2)C3)cc1-c1cnc2c(N)nc(C(F)(F)F)nn12` [Example 331, 3-(4-Amino-2-(trifluoromethyl)imidazo[1,2-f][1,2,4]triazin-7-yl)-N-(3-(fluoromethyl)bicyclo[1.1.1]pentan-1-yl)-4-methylbenzenesulfonamide trifluoroacetate salt], the IC50 was 100 to 500 nM in assay [1], 100 to 500 nM in assay [2] and below 100 nM in assay [3].
On to `Cc1ccc(S(=O)(=O)N(C)C23CC(N)(C2)C3)cc1-c1cnc2c(N)ncnn12` [Example 118, N-(3-aminobicyclo[1.1.1]pentan-1-yl)-3-(4-aminoimidazo[1,2-f][1,2,4]triazin-7-yl)-N,4-dimethylbenzenesulfonamide trifluoroacetate salt], for which the IC50 in assay [1] was 100 to 500 nM; in assay [2] it was above 1000 nM; in assay [3] it was below 100 nM.
In the case of `Cc1nc(N)c2ncc(-c3cc(S(=O)(=O)NC45CCC(O)(CC4)C5)ccc3C)n2n1` [Example 443, 3-(4-Amino-2-methylimidazo[1,2-f][1,2,4]triazin-7-yl)-N-(4-hydroxybicyclo[2.2.1]heptan-1-yl)-4-methylbenzenesulfonamide trifluoroacetate salt], the IC50 was below 100 nM in assay [1], 100 to 500 nM in assay [2] (Homo sapiens) and below 100 nM in assay [3].
As to `Cc1ccc(S(=O)(=O)N[C@H]2CC[C@H](CO)OC2)cc1-c1cnc2c(N)nccn12` [Example 57, 3-(8-Aminoimidazo[1,2-a]pyrazin-3-yl)-N-[(3S,6R)-6-(hydroxymethyl)tetrahydro-2H-pyran-3-yl]-4-methylbenzenesulfonamide], the IC50 was 500 to 2000 nM in assay [1], above 1000 nM in assay [2] (Homo sapiens) and below 100 nM in assay [3].
In the same order, the values of `Cc1ccc(S(=O)(=O)N2CCC(O)CC2)cc1-c1cnc2c(N)nccn12` [Example 51, 1-{[3-(8-Aminoimidazo[1,2-a]pyrazin-3-yl)-4-methylphenyl]sulfonyl}piperidin-4-ol] are 500 to 2000 nM, above 1000 nM and below 100 nM.
Take `Cc1ccc(S(=O)(=O)N[C@H]2CC[C@H](CO)OC2)cc1-c1cnc2c(N)nc(C(F)(F)F)nn12` [Example 356, 3-(4-amino-2-(trifluoromethyl)imidazo[2,1-f][1,2,4]triazin-7-yl)-N-((3S,6R)-6-(hydroxymethyl)tetrahydro-2H-pyran-3-yl)-4-methylbenzenesulfonamide]: the IC50 in assay [1] was 100 to 500 nM; in assay [2] (Homo sapiens) it was below 100 nM; in assay [3] it was below 100 nM.
On to `Cc1ccc(S(=O)(=O)NC23CC(C(N)=O)(C2)C3)cc1-c1cnc2c(N)nc(C(F)(F)F)cn12` [Example 288, 3-(3-(8-Amino-6-(trifluoromethyl)imidazo[1,2-a]pyrazin-3-yl)-4-methylphenylsulfonamido)bicyclo[1.1.1]pentane-1-carboxamide trifluoroacetate salt], for which the figures for the IC50 in assay [1], in assay [2] (Homo sapiens) and in assay [3] were 100 to 500 nM, 100 to 500 nM and below 100 nM, respectively.
On to `Cc1ccc(S(C)(=O)=O)cc1-c1cnc2c(N)nc(-c3cccc(CC#N)c3)cn12` [Example 474, 2-(3-(8-Amino-3-(2-methyl-5-(methylsulfonyl)phenyl)imidazo[1,2-a]pyrazin-6-yl)phenyl)acetonitrile trifluoroacetate], for which the IC50 was 100 to 500 nM in assay [1], 100 to 500 nM in assay [2] (Homo sapiens) and below 100 nM in assay [3].
On to `O=S(=O)(O)c1ccccc1.[2H]C([2H])([2H])c1ccc(S(=O)(=O)NC23CCC(C#N)(C2)C3)cc1-c1cnc2c(N)ncnn12` [Example 255, 3-(4-Aminoimidazo[2,1-f][1,2,4]triazin-7-yl)-N-(4-cyanobicyclo[2.1.1]hexan-1-yl)-4-(methyl-d3)benzenesulfonamide crystalline benzenesulfonic acid salt], for which the values for the IC50 in assay [1], in assay [2] (Homo sapiens) and in assay [3] were 100 to 500 nM, below 100 nM and below 100 nM, respectively.
Regarding `Cc1ccc(S(=O)(=O)NC2CCOCC2)cc1-c1cnc2c(N)ncnn12` [Example 68, 3-(4-Aminoimidazo[2,1-f][1,2,4]triazin-7-yl)-4-methyl-N-(tetrahydro-2H-pyrazn-4-yl)benzenesulfonamide], the IC50 in assay [1] was 500 to 2000 nM; in assay [2], 500 to 1000 nM; in assay [3], below 100 nM.
The corresponding values for `Cc1ccc(S(=O)(=O)N[C@H]2CC[C@@H](C#N)C2)cc1-c1cnc2c(N)nc(C(F)(F)F)nn12` (single isomer, unassigned) [Example 320] are 100 to 500 nM, 100 to 500 nM and below 100 nM.
For `CC(=O)N1CC(O)(CNS(=O)(=O)c2ccc(C)c(-c3cnc4c(N)nc(C(F)(F)F)nn34)c2)C1` [Example 325, N-((l-Acetyl-3-hydroxyazetidin-3-yl)methyl)-3-(4-amino-2-(trifluoromethyl)imidazo[1,2-f][1,2,4]triazin-7-yl)-4-methylbenzenesulfonamide trifluoroacetate salt], the figures for the IC50 in assay [1], in assay [2] and in assay [3] were below 100 nM, 100 to 500 nM and below 100 nM, respectively.
